We go through one compound from US8796328B2, “TRPV1 antagonists” (AbbVie Inc., priority 2012, dated 2014).

Assay [1] has as its target human TRPV1 receptor (hTRPV1) (Homo sapiens (Human), UniProt Q8NER1). Description: Acid activation assay (pH 5.0, FLIPR intracellular Ca2+). Type of assay: cell-based. The conditions noted are these: 37.5 μM compound.
Assay [2] concerns rats. In words: Rat tail immersion assay (noxious thermosensation, 55° C. water bath). Type of assay: in vivo. The procedure: Compounds were tested for their effects on noxious thermosensation using the tail immersion assay. Testing was performed one hour following oral administration of 100 μmol/kg of the compound in 10% ethanol/20% Tween-80/70% PEG-400 (2 mL/kg). Mophine (6 mg/kg) was administered interperitoneally (i.p.) using saline (2 mL/kg) as the vehicle. For testing, a circulating water bath was heated to 55° C. Thirty to sixty minutes post dosing, the rats were handled for a few seconds to calm them down and then cupped with their back against the testers hand at a slight angle with head facing away from tester. With rat in one hand and a 0.01 second stopwatch in the other hand, the tail was quickly immersed 6-8 cm in water bath or to a distance leaving 2-3 cm of tail out of water. The timer was started simultaneously. When the rat flinched or attempted withdrawal, timer was immediately stopped and the rat's tail was quickly removed from water bath. This response latency (in seconds) was recorded. Process was repeated 3 times with 3-4 minutes between readings for a final average.
For a given example, a percent increase in the average response latency (in seconds) for tail withdrawal relative to a vehicle control was determined % increase=[(tc−tv)/tv]×100%
tc=response time (in seconds) with oral dosing of compounds
tv=response time (in seconds) with oral dosing of vehicle
The % increases in tail withdrawal latency relative to vehicle control are divided into the following categories: […]

The test system of assay [3] is rats. Description: Rat acute capsaicin-induced flinching behavior. Type of assay: in vivo. As to conditions: single acute oral dose 100 μmol/kg, capsaicin 2.5 μg one hour after dosing, five minute observation. The method, then: Rats were placed in individual observation cages. Following an acclimation period of 30 minutes, selected compounds were administered orally at a dose of 100 μmol/kg orally in a vehicle (10% ethanol/20% Tween 80/70% polyethylene glycol-400) at a volume of 2 mL/kg. One hour after administration of the compound, 2.5 μg of capsaicin in a 10 μL solution of 10% ethanol/90% hydroxypropyl-β-cyclodextrin was injected subcutaneously into the dorsal aspect of the right hind paw. The observation cage was then suspended above mirrors in order to facilitate observation. […] The number of flinching behaviors of the injured paw was recorded during the five minute observation period (Gilchrist, H. D.; Allard, B. L.; Simone, D. A.; Enhanced withdrawal responses to heat and mechanical stimuli following intraplantar injection of capsaicin in rats. Pain, 1996, 67, 179-188). A single acute oral dose of Example 10 as described above produced a 56% reduction in flinching behavior relative to vehicle-treated animals.

human TRPV1 receptor (hTRPV1), sequence (Q8NER1 whole entry): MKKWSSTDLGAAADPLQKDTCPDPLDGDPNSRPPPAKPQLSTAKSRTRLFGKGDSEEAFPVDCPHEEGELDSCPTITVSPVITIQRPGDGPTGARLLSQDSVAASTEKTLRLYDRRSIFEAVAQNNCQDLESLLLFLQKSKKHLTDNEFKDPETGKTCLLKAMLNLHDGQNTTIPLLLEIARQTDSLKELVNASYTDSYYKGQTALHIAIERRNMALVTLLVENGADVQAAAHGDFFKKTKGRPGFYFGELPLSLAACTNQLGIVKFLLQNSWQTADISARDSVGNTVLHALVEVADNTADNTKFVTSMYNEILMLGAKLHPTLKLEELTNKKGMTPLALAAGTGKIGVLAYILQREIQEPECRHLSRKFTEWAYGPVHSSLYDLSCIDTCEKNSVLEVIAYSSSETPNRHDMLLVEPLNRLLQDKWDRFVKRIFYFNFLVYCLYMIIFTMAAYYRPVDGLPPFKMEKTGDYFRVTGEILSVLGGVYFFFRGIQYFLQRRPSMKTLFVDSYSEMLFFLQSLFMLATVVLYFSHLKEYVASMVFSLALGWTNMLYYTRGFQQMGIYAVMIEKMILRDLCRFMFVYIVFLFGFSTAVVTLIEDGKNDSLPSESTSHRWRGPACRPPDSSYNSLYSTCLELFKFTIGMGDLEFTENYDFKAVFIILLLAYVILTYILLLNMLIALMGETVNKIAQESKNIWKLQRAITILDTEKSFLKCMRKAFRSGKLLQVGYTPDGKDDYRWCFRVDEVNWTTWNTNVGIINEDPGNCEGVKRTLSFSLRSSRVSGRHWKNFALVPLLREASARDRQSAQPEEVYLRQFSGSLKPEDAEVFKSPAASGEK

Take `CS(=O)(=O)Nc1ccc(CNC(=O)N[C@@H]2CC(CF)(CF)Oc3cc(C(F)(F)F)ccc32)cc1F` [Example 10, N-{4-[({[(4R)-2,2-bis(fluoromethyl)-7-(trifluoromethyl)-3,4-dihydro-2H-chromen-4-yl]carbamoyl}amino)methyl]-2-fluorophenyl}methanesulfonamide]: the remaining activity at 37.5 µM in assay [1] (percentage of the maximal pH 5.0-induced response remaining, read-out: hTRPV1 H+ (max % remain)) came to 72%. The “human TRPV1 H+ (max % remain)” value in assay [1] (Table 2, percentage of maximal pH 5.0-induced response) was found to be 72%. The “% Increase in Tail Withdrawal Latency” value with rats [2] (rat, oral 100 μmol/kg, one hour post dosing, relative to vehicle) is “−”. Moreover, the “increase in tail withdrawal latency relative to vehicle-treated animals” value with rats [2] (rats, after oral administration) is listed as less than 10%. The “reduction in flinching behavior relative to vehicle-treated animals” value in the assay with rats [3] stood at 56%.
